Measured values: patent US10745755B2, “Sestrin activators for preventing and/or attenuating skin ageing and/or hydrating the skin and/or for regulating skin pigmentation” (CHANEL PARFUMS BEAUTE, priority 2014, dated 2020)

What was measured:
Format in all cases: cell-based
SESN3 = SESN3 immunofluorescence in human skin equivalents; conditions: versus untreated control, extract last 7 days, retinol last 4 days
Experimental: (§1) Keratinocytes and fibroblasts from juvenile donors were purchased from Promocell. The dermal equivalent consists of a collagen solution containing rat tail collagen type I (BD Biosciences), 10× DMEM medium (Gibco/Invitrogen), sodium bicarbonate (Gibco/Invitrogen) and fibroblasts added into 6 well-culture inserts (BD) and placed in deep 6-well culture plates (BD). After 2 hours, of polymerisation at 37° C., dermal equivalents were equilibrated in supplemented Keratinocyte Growth Medium (KGM2 basal medium+SupplementMix, Promocell) and placed at 37° C., 5% CO2. After 24 hours, suspension of keratinocytes was added over the gel and submerged for 3 days in supplemented Keratinocyte Growth Medium. The inserts were placed at the air liquid interface in Serum-free Keratinocyte Defined Medium (SKDM: SKDM is a high Ca^2+ medium consisting of KGM2 basal medium, transferrin (Sigma), BSA (Sigma) and L-ascorbic acid (Sigma)) for 10 days. 24 hours before culture arrest, skin equivalents were irradiated, in duplicates, with 100 mJ/cm^2 UVB.
(§2) Human skin equivalents were fixed in 10% formalin before embedding in paraffin and cutting into 5 μm-thick sections. Sections were deparaffinized in xylene, rehydrated in ethanol baths, rinsed in deionised water. Antigen retrieval in 10 mM citrate buffer pH6 at 90° C. for 20 minutes was performed before blocking reaction in goat serum 3% for 1 hour. […]

Loricrin = Loricrin immunostaining in human skin equivalents; conditions: versus untreated control, extract last 7 days, retinol last 4 days
Experimental: as §1, §2

Cytokeratin 10 = Cytokeratin 10 immunostaining in human skin equivalents; conditions: versus untreated control, retinol last 4 days
Experimental: as §1, §2

CC1=C(/C=C/C(C)=C/C=C/C(C)=C/CO)C(C)(C)CCC1 [retinol]
decreased: SESN3 staining intensity (SESN3) | Loricrin immunostaining (Loricrin) | Cytokeratin 10 immunostaining (Cytokeratin 10)
